Experimental findings from patent US6235736A, “3-anilino-2-cycloalkenone derivatives” (Nikken Chemicals Co., Ltd., priority 1997, dated 2001) are described below.

The subject of one test is Type IV PDE. The test is described as follows: PDE IV inhibitory activity (isozyme partially purified from rat neutrophils, 3H-cAMP substrate). The test is classed as biochemical. The conditions noted are these: rat neutrophil PDE IV, 30° C., 30 minutes, read-out: PDE IV inhibiting action IC50. The method, then:
Type I, III, IV, and V PDE isozymes were prepared to study the PDE inhibitory activities of and selectivities with the compound of the invention [Trends Pharmacol Sci., 12, 19-27 (1991)]. Type I PDE was purchased from Sigma Corp. Type III, IV, and V PDE isozymes were partially purified from platelets (Type III and V) or neutrophils (Type IV) collected from rats. Each enzyme source was homogenized in a buffer (pH 6.5) containing 20 mM bisTris, 2 mM EDTA (i.e., ethlenediamine tetraacetate), 2-mercaptoethanol, 0.001 mM pepstatin and 0.01 mM leupeptin and was centrifuged at 30000×G for 30 minutes to obtain a supernatant, which was applied to an ion exchange column (Q-sepharose first flow, Pharmacia Corp.) and was eluted with 0 to 1M sodium acetate. Partially purified isozymes were identified by observing the inhibitory effects of conventional inhibitors.
Each PDE isozyme and the test compound dissolved in DMSO (i.e., dimethylsulfoxide) were added to 50 mM Tris--HCI buffer containing 5 mM magnesium chloride. ^3 H-cAMP (for type III and IV PDE) or ^3 H-cGMP (for type I and V PDE) were added as substrates and were reacted at 30° C. for 30 minutes. The reaction was terminated by placing the test tube in boiling water of 100° C. for 5 minutes. The nucleotides formed by PDE were broken down to ^3 H-adenosine or ^3 H-guanosine by 5'-nucleotidase. The substrate and reaction product were separated through an ion-exchange column (i.e., QAE sephadex, Pharmacia Corp.)
The eluted ^3 -H-nucleoside was measured for its radioactivity by a liquid scintillation counter. The inhibitory activities of the compound of the present invention are shown by the IC50 value (M). Further, the inhibitory activities of the test samples against type I, III, and V PDE are 1/10 or less than that against Type IV PDE.

Test [1] deals with antigen-induced bronchoconstriction in guinea-pig. The test can be described thus: Inhibitory effect on antigen-induced bronchospasm (anti-asthmatic action). The conditions noted are these: Cavia porcellus; intravenous, 10 minutes before 0.2 mg/kg OA challenge; read-out: Action suppressing antigen induced bronchoconstriction ED50. Format: in vivo, guinea-pig (Hartley male). The method, then: Hartley male guinea-pig was sensitized by intramuscular administration of 35 mg Ovalbumin (OA) at first day and fourth day. After 25 to 29 days of first sensitization, trachial canula was introduced in the guinea pig anesthetized with pentobarbital and artificial ventilation was performed. The overflow of the ventilation was measured by the Konzett Roessler method while 0.2 mg/kg OA were administered intravenously. The test compound was dissolved in polyethylene glycol 400 and intravenously administered 10 minutes before OA challenge.

For test [2], the system named is TPA induced ear edema in mouse. The test can be described thus: TPA induced mouse ear edema assay. The test is classed as in vivo, mouse (male ICR). The settings on record: 0.1 mg applied to right ear immediately after TPA; 6 hour. The procedure: Male ICR mice, 5 week old, were divided into groups of seven to eight. 2 μg of TPA (phorbor 12-ministate; Sigma Co.) in 20 μl acetone was applied to the inner and outer surface of right ear of each mouse to cause a reaction. 0.1 mg of compound was dissolved in 20 μl of a tetrahydrofuran-methanol mixture (mixture ratio 1:1) and the solution (20 μl) applied to the right ear immediately after TPA treatment. After 6 hour, the animals were sacrificed and right ear was punched out (.phi. […]) and weighed. The effect of comppund.was calculated as % inhibition as follows: [formula]

The test system of the next test is rat neutrophils. The test can be described thus: Inhibition of superoxide anion release from rat neutrophils (chemiluminescence). Format: cell-based. The settings on record: Neutrophil, stimulated with 0.3 micro M A23187, read-out: Action suppressing release of superoxide anions from rat neutrophils IC50. The method, then:
The release of super oxide anions was measured so as to study the inhibitory effects of the compound of the present invention on inflammatory leukocytes, that is, neutrophils.
Blood sample was collected from Wister rats anestetized with ether. It was superposed on a blood cell separation solution (Polymorphoprep 1.113, Naicomed Farm) and the neutrophils were separated by centrifugation. The neutrophils were resuspended in a Hank's balanced salt solution at a concentration of 0.5×10^4 cells/ml. 0.1 mM of lusigenin and the test substance dissolved in DMSO were added to 2 ml of the cell suspension. The chemiluminescence generated by stimulation of 0.3 maicro M calcium ionophore A23187 was measured by a chemiluminescence reader so as to evaluate the release of super oxide anions.

Test [3] has as its system DNFB contact-type dermatitis in mouse. The test is described as follows: Allergic contact dermatitis assay (DNFB). The test is classed as in vivo, mouse (ICR male). The settings on record: applied 1 hour before and 5 hours after inducing ear edema; 24 hours. The procedure: 8 to 9 week old ICR type male mice were divided into groups of 8 to 9 each for use. The shaved skin of the ventral surface of each of the mice was applied with a 0.5% DNFB (2,4-dinitrofluorobenzene)acetone-olive oil solution (v/v=4/1) in an amount of 25 μl/day over 2 days to sensitize it. Four days after the second day of sensitization, a 0.2% DNFB acetone-olive oil solution was applied to the ear in an amount of 25 μl to induce contact-type dermatitis. After 24 hours, the thickness of the ear was measured using a dial thickness gauge and the difference with the value before inducing the edema was found. The test compound was dissolved in 25 μl of tetrahydrofuran-methanol (mixture ratio 1:1) and applied two time, that is, 1 hour before inducing the ear edema and 5 hours after it.
In Table 6, the effect of the compound was expressed by the ED50.

Structures are written as SMILES.

With `COc1ccc(NC2=CC(=O)CC2)cc1O[C@@H]1C[C@H]2CC[C@@H]1C2` (racemic) [Compound No. 8, 3-[3-[(1RS,2RS,4SR)-bicyclo[2.2. 1]hept-2-yloxy]-4-methoxyanilino]-2-cyclopenten-1-one], the IC50 turned out to be 1300 nM in the test with Type IV PDE and 140 nM with rat neutrophils. For the same compound, in test [1], the ED50 came to 3 mg/kg. Further, in test [2], the “% Inhibition of ear edema” value was determined as 73.1%.

As for `COc1ccc(NC2=CC(=O)NCC2)cc1O[C@H]1C[C@@H]2CC[C@H]1C2` (relative stereo) [Compound No. 23], the IC50 with Type IV PDE was found to be 2400 nM; with rat neutrophils it was 190 nM. For the same compound, in test [2], the “% Inhibition of ear edema” value turned out to be 73.0%.

Turning to `COc1ccc(NC2=CC(=O)CC2)cc1OC1CCCC1` [Compound No. 1, 3-(3-cyclopentyloxy-4-methoxyanilino)-2-cyclopenten-1-one], the half-maximal inhibitory concentration (IC50) in the test on Type IV PDE was 1600 nM; in the test with rat neutrophils, 120 nM. The ED50 in test [1] was 1.4 mg/kg. The “% Inhibition of ear edema” value in test [2] is given as 68.2%.

For the compound `COc1ccc(NC2=CC(=O)CC2)cc1OC1Cc2ccccc2C1` [Compound No. 9, 3-[3-(2-indanyloxy)-4-methoxyanilino]-2-cyclopenten-1-one], the IC50 in the test with Type IV PDE worked out at 690 nM. Further, the ED50 in test [1] stood at 5.5 mg/kg. Besides, in test [2], the “% Inhibition of ear edema” value amounted to 72.3%. Further, the “ED50 (allergic contact dermatitis, ear edema)” value in test [3] came out at 94 μg/site.

As for `COc1ccc(NC2=C(C)C(=O)CC2)cc1OC1Cc2ccccc2C1` [Compound No. 10, 3-[3-(2-indanyloxy)-4-methoxyanilino]-2-methyl-2-cyclopenten-1-one], in the test with Type IV PDE, the IC50 was 140 nM. Moreover, in test [1], the ED50 worked out at 0.86 mg/kg.

`COc1ccc(NC2=C(C)C(=O)CC2)cc1OC1CCCCC1` [Compound No. 14, 3-(3-cyclohexyloxy-4-methoxyanilino)-2-methyl-2-cyclopenten-1-one]: the 50% inhibitory concentration (IC50) in the test with Type IV PDE is 2400 nM. Further, the “% Inhibition of ear edema” value in test [2] was determined as 73.4%. In addition, the “ED50 (allergic contact dermatitis, ear edema)” value in test [3] is 16 μg/site.

Consider `COc1ccc(NC2=CC(=O)NCC2)cc1OC1CCCC1` [Compound No. 21, 4-(3-cyclopentyloxy-4-methoxyanilino)-1,2,5,6-tetrahydropyridin-2-one], for which the IC50 is 1100 nM in the test with Type IV PDE and 410 nM with rat neutrophils. For the same compound, the ED50 in test [1] is 1 mg/kg.

Regarding `CCC1=C(Nc2ccc(OC)c(OC3Cc4ccccc4C3)c2)CCC1=O` [Compound No. 32, 2-ethyl-3-[3-(2-indanyloxy)-4-methoxyanilino]-2-cyclopenten-1-one], the concentration for half-maximal inhibition (IC50) in the test with Type IV PDE came out at 50 nM. The median effective dose (ED50) in test [1] was determined as 7.34 mg/kg. The “% Inhibition of ear edema” value in test [2] was determined as 75.5%.

With `COc1ccc(N(Cc2ccc3ccccc3c2)C2=CC(=O)CC2)cc1OC1CCCC1` [Compound No. 62, 3-[3-cyclopentyloxy-4-methoxy-N-(2-naphthylmethyl)anilino]-2-cyclopenten-1-one], the concentration for half-maximal inhibition (IC50) with Type IV PDE is 1200 nM. Also, the “% Inhibition of ear edema” value in test [2] is given as 78.8%.

As for `COc1ccc(N(Cc2cccnc2)C2=CC(=O)CC2)cc1OC1CCCC1` [Compound No. 63, 3-[3-cyclopentyloxy-4-methoxy-N-(3-pyridylmethyl)anilino]2-cyclopenten-1-one], in the test on Type IV PDE, the IC50 amounted to 5300 nM. In addition, in test [2], the “% Inhibition of ear edema” value is 75.4%.

`CCCCCN(C1=CC(=O)CC1)c1ccc(OC)c(OC2CCCC2)c1` [Compound No. 64, 3-(3-cyclopentyloxy-4-methoxy-N-pentylanilino)-2-cyclopenten-1-one]: the IC50 in the test with Type IV PDE turned out to be 4400 nM. In test [2], the “% Inhibition of ear edema” value was found to be 52.0%.

For `COc1ccc(N(C)C2=CC(=O)CCC2)cc1OC1Cc2ccccc2C1` [Compound No. 65, 3-[3-(2-indanyloxy)-4-methoxy-N-methylanilino]-2-cyclohexen-1-one], in the test with Type IV PDE, the half-maximal inhibitory concentration (IC50) amounted to 290 nM. The “% Inhibition of ear edema” value in test [2] is given as 52.5%.

`COc1ccc(N(Cc2ccccc2)C2=CC(=O)CCC2)cc1OC1Cc2ccccc2C1` [Compound No. 66, 3-[N-benzyl-3-(2-indanyloxy)-4-methoxyanilino]-2-cyclohexen-1-one]: the 50% inhibitory concentration (IC50) in the test with Type IV PDE is 570 nM. Further, the “% Inhibition of ear edema” value in test [2] was 72.8%.

Consider `COc1ccc(N(Cc2ccc3ccccc3c2)C2=CC(=O)CCC2)cc1OC1Cc2ccccc2C1` [Compound No. 67, 3-[3-(2-indanyloxy)-4-methoxy-N-(2-naphthylmethyl)anilino]-2-cyclohexen-1-one], for which the IC50 with Type IV PDE stood at 3800 nM. In addition, the “% Inhibition of ear edema” value in test [2] is 60.8%.

With `COc1ccc(N(Cc2ccccn2)C2=CC(=O)CCC2)cc1OC1Cc2ccccc2C1` [Compound No. 68, 3-[3-(2-indanyloxy)-4-methoxy-N-(2-pyridylmethyl)anilino]-2-cyclohexen-1-one], the IC50 in the test with Type IV PDE was 490 nM. Besides, the “% Inhibition of ear edema” value in test [2] turned out to be 52.0%.

On to `COc1ccc(N(Cc2ccncc2)C2=C(C)C(=O)CC2)cc1OC1Cc2ccccc2C1` [Compound No. 73, 3-[3-(2-indanyloxy)-4-methoxy-N-(4-pyridylmethyl)anilino]-2-methyl-2-cyclopenten-1-one], for which the IC50 in the test with Type IV PDE is 3200 nM. Also, the “% Inhibition of ear edema” value in test [2] was 54.3%.

Regarding `COc1ccc(NC2=C(C)C(=O)CCC2)cc1OC1CCCC1` [Compound No. 75, 3-(3-cyclopentyloxy-4-methoxyanilino)-2-methyl-2-cyclohexen-1-one], the IC50 in the test with Type IV PDE turned out to be 470 nM. Moreover, the “% Inhibition of ear edema” value in test [2] is reported as 64.8%.

Consider `COc1ccc(N(C)C2=CC(=O)CC2)cc1OC1Cc2ccccc2C1` [Compound No. 76], for which the IC50 with Type IV PDE stood at 130 nM. Also, the “% Inhibition of ear edema” value in test [2] amounted to 52.7%.

For the compound `COc1ccc(N(Cc2ccccc2)C2=CC(=O)CC2)cc1OC1Cc2ccccc2C1` [Compound No. 77, 3-[N-benzyl-3-(2-indanyloxy)-4-methoxyanilino]-2-cyclopenten-1-one], in the test on Type IV PDE, the IC50 amounted to 910 nM. The “% Inhibition of ear edema” value in test [2] came out at 50.9%.

Consider `COc1ccc(N(Cc2ccncc2)C2=CC(=O)CC2)cc1OC1Cc2ccccc2C1` [Compound No. 78, 3-[3-(2-indanyloxy)-4-methoxy-N-(4-pyridylmethyl)anilino]-2-cyclopenten-1-one], for which the concentration for half-maximal inhibition (IC50) with Type IV PDE was 1300 nM. The “% Inhibition of ear edema” value in test [2] turned out to be 82.2%.

With `COc1ccc(N(Cc2ccc3ccccc3c2)C2=CC(=O)CC2)cc1OC1Cc2ccccc2C1` [Compound No. 79, 3-[3-(2-indanyloxy)-4-methoxy-N-(2-naphthylmethyl)anilino]-2-cyclopenten-1-one], the IC50 with Type IV PDE came to 730 nM. Further, the “% Inhibition of ear edema” value in test [2] stood at 89.0%.

As to `COc1ccc(N(Cc2ccc3ccccc3n2)C2=CC(=O)CC2)cc1OC1Cc2ccccc2C1` [Compound No. 80, 3-[3-(2-indanyloxy)-4-methoxy-N-(2-quinolylmethyl)anilino]-2-cyclopenten-1-one], the half-maximal inhibitory concentration (IC50) with Type IV PDE turned out to be 120 nM. In test [2], the “% Inhibition of ear edema” value came out at 64.4%.

A word on the IC50: it is the concentration that gives 50% inhibition. By ED50 is commonly meant the midpoint of the dose-response relation.
